Consider four compounds from ChEMBL document CHEMBL2380286, “Synthesis, characterization and anti-tumor activity of novel thymoquinone analogs against pancreatic cancer” (2013).

Activity calls are given as the source filed them. No cut-off for these calls is given here. A value given as a limit tells only on which side of the number the result lay.

Experiment [1] relates to MIA PaCa-2. The experiment can be described thus: Chemo-sensitizing activity in human MIAPaCa2 cells assessed as potentiation of gemcitabine-induced cytotoxicity at 2.5 uM after 72 hrs by MTT assay. It is filed as functional, cell-based.
Another experiment deals with BXPC-3. The experiment can be described thus: Cytotoxicity against human BxPC3 cells at 10 uM after 72 hrs by MTT assay. It is filed as functional, cell-based. Background: Formazan colour is commonly taken as a measure of viable cells.
Experiment [2] has as its system MIA PaCa-2. The experiment can be described thus: Induction of apoptosis in human MIAPaCa2 cells at 10 uM after 72 hrs by Histone DNA ELISA. It is filed as functional, cell-based. A general note: An ELISA detects its analyte on a solid surface through an enzyme-linked reagent.
Experiment [3] relates to MIA PaCa-2. The experiment can be described thus: Cytotoxicity against human MIAPaCa2 cells at 5 to 25 uM after 72 hrs by MTT assay. It is filed as functional, cell-based.
Experiment [4] relates to MIA PaCa-2. The experiment can be described thus: Cytotoxicity against human MIAPaCa2 cells at 0.5 uM after 72 hrs by MTT assay. It is filed as functional.

With `CC1=C(/N=C/c2ccc(O)c(O)c2O)C(=O)C(C(C)C)=CC1=O`, the result in the experiment with MIA PaCa-2 [1], with BXPC-3, in the experiment with MIA PaCa-2 [2] and in the experiment on MIA PaCa-2 [3] was Active.
Turning to `CC1=C(N)C(=O)C(C(C)C)=CC1=O`, the result with BXPC-3 was Active.
With `CC1=C(/N=C/c2ccc(F)c(F)c2F)C(=O)C(C(C)C)=CC1=O`, the result in the experiment with MIA PaCa-2 [1] was inactive. Also, the outcome with BXPC-3 and in the experiment on MIA PaCa-2 [2] was Active.
For the compound `Nc1ccn([C@@H]2O[C@H](CO)[C@@H](O)C2(F)F)c(=O)n1` [GEMCITABINE], the Activity in the experiment on MIA PaCa-2 [4] is on record as greater than 50%.
